In article PMC7578299, “The antiviral effects of baloxavir marboxil against influenza A virus infection in ferrets” (Influenza and Other Respiratory Viruses, 2020):

Legend:
Type in all cases: in vitro ADME
[1] = Metabolic stability in liver microsomes, monkey; conditions: for % Residual in liver microsome: monkey, 2 μmol/L, pH 7.4
Procedure: (§1) Liver microsomes were prepared from ferrets, rats, dogs, and monkeys, as previously described. ^28 Human liver microsomes were obtained from Sekisui‐XenoTech, LLC and pooled (n = 15). Metabolic stability of the compounds in liver microsomes was tested in duplicate. Oseltamivir and cefcapene pivoxil were used as reference compounds. Liver microsomes at 0.5 mg/mL concentration (final volume of 0.2 mL) were incubated in Tris‐HCl buffer (pH 7.4), containing 50 mmol/L Tris‐HCl, 150 mmol/L KCl, 10 mmol/L MgCl2. The hydrolysis reaction was initiated by applying the test compound solution (final concentration 2 μmol/L). After incubation for 10, 20, and 30 minutes at 37°C, the hydrolysis was terminated by the addition of twofold volume of ice‐cold acetonitrile/methanol (1:1, v/v). Samples were centrifuged at 3000 rpm for 10 minutes prior to LC‐MS/MS analysis of compounds in the supernatants.

[2] = Metabolic stability in liver microsomes, ferret; conditions: for % Residual in liver microsome: ferret, 2 μmol/L, pH 7.4
Procedure: as §1

[3] = Metabolic stability in liver microsomes, rat; conditions: for % Residual in liver microsome: 2 μmol/L, pH 7.4
Procedure: as §1

[4] = Metabolic stability in liver microsomes, human; conditions: 2 μmol/L, pH 7.4
Procedure: as §1

[5] = Metabolic stability in liver microsomes, dog; conditions: for % Residual in liver microsome: 2 μmol/L, pH 7.4
Procedure: as §1

[6] = Metabolic stability test, control (microsome free); conditions: 2 μmol/L, pH 7.4
Procedure: as §1

Question: Which “% Residual in liver microsome Individual value” [1] does the source give for `CC/C=C(\C(=O)N[C@@H]1C(=O)N2C(C(=O)OCOC(=O)C(C)(C)C)=C(COC(N)=O)CS[C@H]12)c1csc(N)n1.Cl` [Cefcapene pivoxil, cefcapene pivoxil hydrochloride] here?
Answer: 0.0%

Question: What does the source list for `CCOC(=O)C1=C[C@@H](OC(CC)CC)[C@H](NC(C)=O)[C@@H](N)C1` [OSP, oseltamivir phosphate]?
Answer: % Residual in liver microsome ([2]; 10 min): 106.5%; % Residual in liver microsome ([2]; 20 min): 107.2%; % Residual in liver microsome ([2]; 30 min): 109.0%; stability in liver microsomes (in words) ([2]; microsomes): stable; % Residual in liver microsome ([1]; 10 min): 73.6%; % Residual in liver microsome ([1]; 20 min): 59.1%; % Residual in liver microsome ([1]; 30 min): 45.2%; % Residual in liver microsome ([3]; 10 min): 110.8%; % Residual in liver microsome ([3]; 20 min): 119.2%; % Residual in liver microsome ([3]; 30 min): 117.3%; stability in liver microsomes (in words) ([3]; microsomes): stable; % Residual in liver microsome ([4]; 10 min): 89.8%; % Residual in liver microsome ([4]; 20 min): 64.8%; % Residual in liver microsome ([4]; 30 min): 49.7%; % Residual in liver microsome ([5]; 10 min): 115.8%; % Residual in liver microsome ([5]; 20 min): 109.6%; % Residual in liver microsome ([5]; 30 min): 110.5%; stability in liver microsomes (in words) ([5]; microsomes): stable; % Residual, Control (Microsome free) ([6]; 10 min): 106.4%; % Residual, Control (Microsome free) ([6]; 20 min): 105.4%; % Residual, Control (Microsome free) ([6]; 30 min): 111.3%
